Here are results for 8 compounds from publication PMC4414571, “Peptides of Presenilin-1 Bind the Amyloid Precursor Protein Ectodomain and Offer a Novel and Specific Therapeutic Approach to Reduce ß-Amyloid in Alzheimer’s Disease” (PLoS ONE, 2015).

Series [1] concerns NICD / γ-secretase in Jurkat cells. The experiment in a line: NICD levels in extracts of Jurkat cells by ELISA (γ-secretase activity). The settings on record: 24 h, percent control. A general note: In an ELISA, binding on a coated surface is turned into a signal by an enzyme label.
Method: Jurkat cells (Sigma) were cultured in RPMI 1640 medium supplemented with 10% FCS, 2 mM L-glutamine, penicillin and streptomycin at 37°C in the presence of 5% CO2. […] After harvesting the cells, extracts were prepared by sonication in lysis buffer (Cell Signaling Technologies) supplemented with 1mM PMSF and complete protease inhibitor cocktail (Roche). The solubilized extracts were then used in ELISA assays to determine NICD levels, as a measure of γ-secretase activity, using the PathScan Cleaved Notch 1 (Val 1744) sandwich ELISA kit (Cell Signaling Technologies) according to the manufactuer’s protocols.
Series [2] has as its system Aβ deposits in mThy1-hAPP transgenic mice. The series is described as follows: Plaque load / Aβ immunolabeling in brain sections of mThy1-hAPP Tg mice after intraventricular peptide infusion. The class given is in vivo, mouse. The settings on record: 10 μM in PBS, two weeks infusion then two weeks rest, vs PBS controls. How it is done:
These mice express mutated (London V717I and Swedish K670M/N671L) hAPP751 under the control of the neuronal murine (m)Thy-1 promoter. […] The Tg lines were maintained by crossing heterozygous Tg mice with non-Tg wild type C57BL/6 x DBA/2 F1 breeders. All animal studies were carried out according to protocols approved by the Institutional Animal Care and Use Committee of the University of California San Diego. […]
For analysis of Aβ deposits, blind-coded 40 μm vibratome sections were immunolabeled as previously described with mouse monoclonal antibodies (MAb) against human Aβ (clone 82E1, prepared against Aβ 1–16) followed by incubation with fluorescein isothiocyanate (FITC)-conjugated anti-mouse IgG (Vector Laboratories). Sections were imaged with a laser scanning confocal microscope (MRC1024, BioRad) as described and digital images were analyzed with the NIH Image 1.43 program to determine the percent area occupied by Aβ deposits. Three immunolabeled sections were analyzed per mouse and the average of individual measurements was used to calculate group means. […]

For series [3], the system named is Aβ 1–40 and 1–42 in mThy1-hAPP mouse brains. The series is described as follows: Aβ40- and Aβ42-specific ELISA of neocortex extracts of peptide-treated mThy1-hAPP mice. The class given is in vivo. The settings on record: vs PBS, 10 μM peptide infusion, two weeks then two weeks rest. The protocol:
These mice express mutated (London V717I and Swedish K670M/N671L) hAPP751 under the control of the neuronal murine (m)Thy-1 promoter. […] The Tg lines were maintained by crossing heterozygous Tg mice with non-Tg wild type C57BL/6 x DBA/2 F1 breeders. All animal studies were carried out according to protocols approved by the Institutional Animal Care and Use Committee of the University of California San Diego.
Age-matched male and female mThy1-hAPP Tg mice at 6 months of age were anesthetized and under sterile conditions, a 26 gauge stainless steel cannula (Alzet Brain Infusion kit 3, Durect Corp) was stereotaxically implanted into the right ventricle using the following coordinates: –1 mm using Bregma as a reference, lateral, 1.0 mm, depth, -3.0 mm, and secured to the cranium using superglue. The cannula was connected via a 5 mm coil of V3 Biolab vinyl tubing to a model 1002 osmotic minipump (Alzet, Durect Corp) surgically placed subcutaneously beneath the shoulder blades and surgically closed. The solutions (each peptide at 10 μM in PBS) were delivered directly into lateral ventricles at a flow rate of 0.25 μl per hour (100 μl total volume) for two weeks. […]
Samples from mouse cortex and hippocampus were homogenized in ice-cold, 6 M guanidine-HCl according to published protocols. Quantification of Aβ 1–40 and 1–42 was carried out by ELISA kits (Invitrogen). […]

The subject of series [4] is IMR-32 human neuroblastoma cell-line (endogenous Aβ40 or 42 production). The series is described as follows: Endogenous Aβ40 and 42 production in IMR-32 culture medium by ELISA. The settings on record: for Effect on Aβ40 and 42 production in vitro (in words): 0–5 μM peptide, 24 h, IMR-32 culture medium, ELISA; for Production of total Aβ and of Aβ 40 and 42 (summary in words): Discussion summary, stated as in vitro and in vivo (mThy1-hAPP Tg mice). It is filed as cell-based. The protocol: A human neuroblastoma cell-line, IMR-32 (ATCC CCL-127) was cultured in MEM Earles medium containing 10% fetal bovine serum, 2 mM L-glutamine in the presence of penicillin and streptomycin. Equal numbers of cells (0.3 x 10^6 per well) were plated on 6-well plates overnight. Peptides (0–5 μM) were added to fresh culture medium (500 μl per well) and left in the incubator for 24 hours, after which the culture medium from each well was removed and stored at -80°C in the presence of 4-(2-Aminoethyl) benzenesulfonyl fluoride hydrochloride (AEBSF) and protease inhibitors. Prior to use, the culture medium was centrifuged in an eppendorf microfuge for 5 min at 4°C, the supernatant diluted with an equal volume of sample diluent buffer (Wako) and analyzed for the presence of Aβ40 or 42 using a commercial ELISA kit (Wako).

The target in series [5] is T1, soluble ectodomain of APP (APPs, APP 695) (Homo sapiens, UniProt P05067).
T1 construct: host or cells: Sf9 insect cells (baculovirus), conditioned medium
The series is described as follows: Biolayer interferometry, biotinylated peptides on streptavidin biosensors vs purified soluble APP (APPs). It is filed as binding. The settings on record: 30°C, biotinylated peptide on SA biosensors; for koff / kon / Kd: 1:1 model; for Kd: k off/k on, Kinetics Buffer (1X PBS, 0.002% Tween-20, 0.01% BSA). The protocol: Sf9 cells (ATCC CRL 1711) were grown in TMN-FH complete medium (Pharmingen) in suspension and infected at a multiplicity of infection of 2 with a titred stock of recombinant virus expressing human APP695. Conditioned media and/or cells were harvested 6 days after infection. Cells and debris were removed by centrifugation (at 1000 x g for 15 min).
Recombinant baculoviruses were produced according to published protocols. A fragment containing full-length APP 695 was subcloned into the baculovirus transfer vector pBlueBac3 (Invitrogen). The resulting recombinant vector was co-transfected with baculovirus DNA into sf9 cells. Recombinant APP expression was verified by Western blot hybridization using mouse MAb against human APP (Cat # MAB348, Millipore).
APPs was purified from baculovirus conditioned medium to >95% purity, as assessed by densitometry analysis of Coomassie stained SDS PAGE gels, by Arvys Proteins, Stamford, CT, using the following strategy. The conditioned medium proteins were purified by heparin-affinity chromatography, followed by two gel filtration chromatography steps over HiPrep Sephacryl S300 columns and two steps of anion exchange chromatography on HiTrapQ columns.
The binding affinities of peptides P1, scrambled P1, P4, P5, P7 and P8 for the soluble ectodomain of APP or control IgG were measured by biolayer interferometry on an Octet RED96 System (Pall FortéBio Corp., Menlo Park, CA). This system monitors interference of light reflected from two sources (an internal reflection surface and the liquid/solid interface of a fiber optic sensor) to measure the rate of binding of molecules to the biosensor surface.
Peptides were synthesized and biotinylated at the NH2-terminus by Dr. Michael Freydkin at Biopeptides, Inc., San Diego, CA, and purified to >95% by HPLC. Biotinylated peptides were loaded onto Streptavidin (SA) biosensors (Pall FortéBio Corp.) at empirically determined concentrations. All affinity measurements were carried out in Kinetics Buffer (KB) (1X PBS, 0.002% Tween-20, and 0.01% BSA) at 30°C. Typically, the biosensors were pre-equilibrated in KB for 120s, loaded with a biotinylated peptide at optimal concentrations and times, quenched with 10 μg/ml biocytin in KB for 180s, brought to baseline in KB for 120s and transferred to wells containing purified APPs (0–200 nM). Multiple negative controls were run for each peptide including association buffer only (no APP) or with IgG replacing APP. Binding kinetics were calculated using the FortéBio Data Analysis v7.1 software. The association (k on) and dissociation (k off) rate constants were obtained by fitting the association and dissociation data to a 1:1 model. Binding affinity, KD, was calculated as k off/k on.
On the technique in general: In BLI a coated tip is dipped into the sample, and binding shifts an interference pattern.

The test system of series [6] is NICD (γ-secretase activity). The series is described as follows: NICD levels in neocortex of treated mThy1-hAPP mice by Western blot (γ-secretase activity). The class given is in vivo, mouse. The settings on record: peptide-infused mThy1-hAPP mice vs PBS, n = 5, two weeks after end of treatment. How it is done:
Extracts of neocortex of mThy1-hAPP mice treated with P4, P8 or PBS only were electrophoresed on SDS gels and Western blotted with primary rabbit antibodies against NICD (Cat# 07–1232, Millipore) at 4°C overnight, followed by horse-radish peroxidase (HRP)-conjugated goat anti-rabbit IgG (Bio-Rad). The immunoreactive bands were detected by chemiluminescence (Thermo Scientific).
An optimal therapeutic approach to AD would avoid producing serious effects on other biochemically and physiologically important processes, as would occur if the cleavages of any of the other substrates of β- or γ-secretase were affected in the process of reducing the levels of Aβ. An especially well-studied example is the γ-secretase activity of PS-1 that is critically involved in the final enzymatic cleavage of Aβ from APP; it also functions in an essential developmental process that generates NICD from Notch. […] At the same time we analyzed the same tissue samples for their β-secretase (BACE-1) activity and APP expression. Extracts were prepared of the neocortex of Tg mice that had been treated with P4, P8 or PBS, and the levels of NICD were determined by Western blot analysis with a primary rabbit Ab against NICD. […]
Background: In western blotting, separated proteins are transferred to a membrane and probed.

Series [7] relates to Aβ production in cell cultures. The settings on record: cells cultured in media containing excess of the FLAG-coupled NH2-terminal domain of PS-1 (residues 1–80), ref [13], cited from earlier work. The text has this: In that work we had selected the NH2-t ... || Peptide P1, comprising the first 80 amino acids of PS-1, scrambled P1 and the two large oligopeptides corresponding to the two halves of the human P1 (peptides P2 and P3, Table 1), were first synthesized and tested in vitro for their effect on the production of Aβ40 and 42.

Entries after “also recorded” stand apart in the source; their conditions may differ. Like-named read-outs stand apart in the source and are kept apart here. Ends that are not written are not given here.

T1 sequence (P05067 18-612 isoform P05067-4 limits assumed): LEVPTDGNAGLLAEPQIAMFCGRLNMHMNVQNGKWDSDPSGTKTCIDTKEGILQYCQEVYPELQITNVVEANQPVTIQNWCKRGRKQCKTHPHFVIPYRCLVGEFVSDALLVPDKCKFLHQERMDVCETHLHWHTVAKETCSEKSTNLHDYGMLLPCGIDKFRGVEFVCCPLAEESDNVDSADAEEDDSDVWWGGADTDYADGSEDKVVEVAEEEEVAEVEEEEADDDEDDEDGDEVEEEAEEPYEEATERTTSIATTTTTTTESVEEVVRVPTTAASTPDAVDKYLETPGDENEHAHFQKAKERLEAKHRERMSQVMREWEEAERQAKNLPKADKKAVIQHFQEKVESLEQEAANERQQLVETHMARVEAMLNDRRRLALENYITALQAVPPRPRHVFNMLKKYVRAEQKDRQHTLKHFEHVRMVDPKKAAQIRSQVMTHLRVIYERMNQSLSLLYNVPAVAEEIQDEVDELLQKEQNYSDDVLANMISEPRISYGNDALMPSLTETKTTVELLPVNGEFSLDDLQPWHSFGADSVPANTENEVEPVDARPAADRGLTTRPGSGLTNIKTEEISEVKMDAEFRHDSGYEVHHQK

In the case of `CC(C)[C@H](O)C(=O)N[C@@H](C)C(=O)N[C@@H]1C(=O)N(C)CCc2ccccc21` [Semagacestat, reference compound], the “NICD levels in Jurkat cells, γ-secretase inhibitor (in words)” value in series [1] (0–100 nM, n = 2) was “inhibited in a dose-dependent manner”.

“RRSLGH [Peptide P9, residues 41–46 of PS-1, fragment of P4]”: the “Aβ immunolabeling / Aβ load in mouse brain (in words)” value in series [2] is reported as “less effective but still produced statistically significant reductions in Aβ levels compared to PBS controls in the neocortex”. Also, the “Aβ40/42 in neocortex extracts by ELISA (in words)” value in series [3] is “gave reductions in Aβ load, but to a lesser extent”. The “Effect on Aβ40 and 42 production in vitro (in words)” value (shortened to “Effect on Aβ40 and 42 production”) in series [4] is listed as “did not give a significant reduction in Aβ in vitro; also recorded: had not shown a reduction of Aβ in vitro”.

One may read the koff as the first-order rate constant of dissociation. Low values mean slow dissociation, high ones fast dissociation. In general, kon refers to a measure of how fast the partners come together. The low end stands for slower complex formation, the high end for faster complex formation. On to DEEEDEELTLKYGAK [Peptide P7], for which, in series [5] (Kinetics Buffer), the koff came to 0.00105 s⁻¹ and the association rate constant (kon) was 104000 M⁻¹ s⁻¹. In series [5], this compound yielded a Kd of 10.1 nM.

Regarding “PEPLSNGRP [Peptide P10, residues 47–55 of PS-1, fragment of P4]”, the “Aβ immunolabeling / Aβ load in mouse brain (in words)” value in series [2] is “less effective but still produced statistically significant reductions in Aβ levels compared to PBS controls in the neocortex”. The “Aβ40/42 in neocortex extracts by ELISA (in words)” value in series [3] is reported as “gave reductions in Aβ load, but to a lesser extent”. In series [4], the “Effect on Aβ40 and 42 production” value is “did not give a significant reduction in Aβ in vitro; also recorded: had not shown a reduction of Aβ in vitro”.

Consider RRSLGHPEPLSNGRP [Peptide P4], for which, in series [5] (Kinetics Buffer), the koff turned out to be 0.00134 s⁻¹ and the kon worked out at 83600 M⁻¹ s⁻¹. The same compound yielded a Kd in series [5] of 16.1 nM. Besides, the “NICD levels in Jurkat cells, peptides (in words)” value in series [1] (0–10 μM, 450 nm, n = 2–3) is “no appreciable change in the levels of NICD”. In addition, in series [6], the “NICD levels in neocortex (in words)” value is reported as “not accompanied by any significant changes in the levels of NICD”.

With “FLAG-PS-1 (residues1-80): bacterially produced FLAG-PS-1 (residues1-80)”, the “Aβ production (in words)” value in series [7] is “robust inhibition of Aβ”; in series [7] (listed as NH2-terminal domain of PS-1 (residues 1–80) coupled to the FLAG protein), “markedly inhibited”.

For “SNGRPQGNSRQVVEQ [Peptide P5, residues 51–65 of PS-1]”, the “Binding to purified APPs (in words)” value in series [5] (Kinetics Buffer) was “no significant binding to APP”. Moreover, in series [4], the “Effect on Aβ40 and 42 production” value is reported as “no significant effect on Aβ production”; the “Production of total Aβ and of Aβ 40 and 42 (summary in words)” value was “did not reduce Aβ”.

As for “RQVVEQDEEEDEELT [Peptide P6, residues 60–74 of PS-1]”, in series [4], the “Effect on Aβ40 and 42 production” value is “substantial dose-dependent reduction in Aβ40 and 42”; the “Production of total Aβ and of Aβ 40 and 42 (summary in words)” value is “markedly reducing the production of total Aβ and of Aβ 40 and 42 in vitro and in vivo”.
